From patent publication US10189873B2, “Compositions and methods for inhibiting “stimulator of interferon gene”-dependent signalling” (ADURO BIOTECH, INC., priority 2013, dated 2019)

Biological target: T1, human STING (Homo sapiens, UniProt Q86WV6, G230A/H232R/R293Q/R71H)
T1 construct: THP1-Blue™ ISG cells (a human monocyte cell line transfected with an IRF-inducible secreted embryonic alkaline phosphatase reporter gene); host or cells: THP1-Blue ISG cells (human monocyte cell line)
Test: Inhibition of ML RR-CDA-mediated induction of type I IFN in THP1-Blue ISG reporter cells (QUANTI-Blue, A655)
Assay type: cell-based
Excerpt: To evaluate if the antagonist 2′-O-propargyl-cyclic-[A(2′,5′)pA(3′,5′)p] (ML-propargyl-CDA) can inhibit STING-dependent induction of type I interferon induction by Rp, Rp dithio cyclic [A(2′,5′)pA(3′,5′)p] (ML RR-CDA) in human cells, 4×10^5 THP1-Blue™ ISG cells (a human monocyte cell line transfected with an IRF-inducible secreted embryonic alkaline phosphatase reporter gene (Invivogen) which express alkaline phosphatase under the control of a promoter comprised of five IFN-stimulated response elements) were incubated with 50 μM of Rp, Rp dithio cyclic [A(2′,5′)pA(3′,5′)p] (ML RR-CDA), 10 μM or 50 μM of the antagonist 2′-O-propargyl-cyclic-[A(2′,5′)pA(3′,5′)p] (ML-propargyl-CDA), both 50 μM Rp, Rp dithio cyclic [A(2′,5′)pA(3′,5′)p] (ML RR-CDA) and 10 μM or 50 μM 2′-O-propargyl-cyclic-[A(2′,5′)pA(3′,5′)p] (ML-propargyl-CDA), or 50 μM Rp, Rp dithio cyclic [A(2′,5′)pA(3′,5′)p] (ML RR-CDA) after a 30 min pre-incubation with 10 μM 2′-O-propargyl-cyclic-[A(2′,5′)pA(3′,5′)p] (ML-propargyl-CDA). After 30 minutes, cells were washed and plated in 96-well dish in RPMI media containing 10% FBS, and incubated at 37° C. with 5% CO2. Cell culture supernatants from each sample were collected after 16 hr incubation, and 20 μL of the cell culture supernatants was added to 180 μL QUANTI-Blue reagent (Invivogen) and incubated for 5 minutes to evaluate type I interferon protein levels. Readings at Absorbance 655 nm were measured with a Versa Max kinetic spectrophotometer ([…]).

T1 sequence (Q86WV6 whole entry R71H/G230A/H232R/R293Q): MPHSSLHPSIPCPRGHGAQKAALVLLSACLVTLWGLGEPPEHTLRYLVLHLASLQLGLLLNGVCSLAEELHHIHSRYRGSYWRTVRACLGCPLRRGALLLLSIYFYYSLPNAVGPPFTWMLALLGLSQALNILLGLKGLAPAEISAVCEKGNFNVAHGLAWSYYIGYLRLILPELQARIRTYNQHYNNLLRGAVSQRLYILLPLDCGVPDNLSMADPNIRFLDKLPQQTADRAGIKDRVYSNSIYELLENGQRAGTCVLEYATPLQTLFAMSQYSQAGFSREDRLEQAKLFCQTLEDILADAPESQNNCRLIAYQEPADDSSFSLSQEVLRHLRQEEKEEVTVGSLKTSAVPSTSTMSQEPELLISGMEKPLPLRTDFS

- inhibition of induction of type I IFN by ML RR-CDA (THP1-Blue ISG cells, 10 μM or 50 μM antagonist added simultaneously with 50 μM ML RR-CDA, FIG. 7A): significantly inhibited
- inhibition of induction of type I interferon by ML RR-CDA (THP1-Blue ISG cells, 30 min pre-incubation with 10 μM antagonist, then 50 μM ML RR-CDA, FIG. 7B): inhibits
- functional character at human STING (concluded from reduction of ML RR-CDA-induced type I IFN production in THP1-Blue ISG cells): antagonist of human STING
SMILES: C#CCO[C@@H]1[C@@H]2OP(=O)(O)OC[C@H]3O[C@@H](n4cnc5c(N)ncnc54)[C@H](OP(=O)(O)OC[C@H]2O[C@H]1n1cnc2c(N)ncnc21)[C@@H]3O [ML-propargyl-CDA, 2′-O-propargyl-cyclic-A(2′,5′)pA(3′,5′)p]
